Patent US20220348658A1, “ANTI-T CELL ANTIGEN-BINDING MOLECULE TO BE USED IN COMBINATION WITH CYTOKINE INHIBITOR” (Chugai Seiyaku Kabushiki Kaisha, priority 2019, published 2022)

What was measured:
IL-6R [1] = molecular target: T1, IL-6R (Homo sapiens, UniProt P08887); details: cited from earlier work
T1 construct: host or cells: population pharmacokinetic models of patients (Frey et al. 2010; Gibiansky and Frey 2012)
T1 sequence (P08887 20-468): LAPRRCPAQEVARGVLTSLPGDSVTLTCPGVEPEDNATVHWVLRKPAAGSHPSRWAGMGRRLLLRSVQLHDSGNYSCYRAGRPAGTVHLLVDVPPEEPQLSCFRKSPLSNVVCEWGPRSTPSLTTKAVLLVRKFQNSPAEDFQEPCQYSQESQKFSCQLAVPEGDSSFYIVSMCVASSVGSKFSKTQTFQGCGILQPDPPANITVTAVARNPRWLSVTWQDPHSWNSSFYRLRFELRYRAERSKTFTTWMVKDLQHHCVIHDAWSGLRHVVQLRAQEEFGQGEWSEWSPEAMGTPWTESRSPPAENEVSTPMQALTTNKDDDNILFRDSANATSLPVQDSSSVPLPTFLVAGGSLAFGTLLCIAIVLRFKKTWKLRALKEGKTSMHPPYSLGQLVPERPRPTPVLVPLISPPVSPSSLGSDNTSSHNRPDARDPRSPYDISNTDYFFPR

[2] = test system: patients who manifested CRS after ERY974 administration; experiment: ERY101EG study: use of Tocilizumab for the treatment of CRS; assay type: in vivo, human
Description: In the ERY101EG study, Tocilizumab was used alone or in combination with a steroid and such for the treatment of CRS in some patients at the discretion of the clinical trial investigator (Table 11). The severity of CRS ranged from Grade 1 to Grade 3. Tocilizumab was administered on the same day as the manifestation of CRS, with the exception of two patients, two cases (cohort 10A, 840010006, 840010007). In all of the Tocilizumab-administered cases, CRS recovered four days after the day of Tocilizumab administration.

IL-6R [3] = molecular target: T1, IL-6R; experiment: Population pharmacokinetic model: Michaelis coefficient (Km) for target-mediated elimination of Tocilizumab; details: theoretical, from the Km value of Frey et al.
[4] = Simulation of serum Tocilizumab concentration with population pharmacokinetic models (Frey et al.; Gibiansky et al.); details: set from the Frey and Gibiansky models
Description: (§1) FIG. 5A is a simulation of changes in serum Tocilizumab concentration when Tocilizumab is administered at 8 mg/kg (intravenous administration: IV) on Day 0, based on the population pharmacokinetic model reported in the article by Frey et al. The vertical axis represents the serum Tocilizumab concentration (μg/mL), and the horizontal axis represents the number of days after administration of Tocilizumab.
as §1, with “5B” for “5A”, “(IV)” for “(intravenous administration: IV)”, “Gibiansky” for “Frey”
FIG. 6A is a simulation of changes in serum Tocilizumab concentration when Tocilizumab is intravenously administered (IV) at 8 mg/kg on Day 0, based on the population pharmacokinetic model reported in the article by Frey et al. The vertical axis represents the serum Tocilizumab concentration (μg/mL), and the horizontal axis represents the number of days after administration of Tocilizumab. […]

**Q.** Which results are given for “Tocilizumab: humanized immunoglobulin G1 (IgG1) kappa anti-human IL-6R monoclonal antibody”?
**A.** Michaelis coefficient (Km) for target-mediated elimination (IL-6R [1]; article by Frey et al., patients with rheumatoid arthritis): 2.7 µg/mL; Michaelis coefficient (Km value) (IL-6R [1]; article by Gibiansky et al.): 0.367 µg/mL; Recovery from CRS after the day of Tocilizumab administration ([2]; all Tocilizumab-administered cases, CRS Grade 1 to Grade 3, alone or with a steroid): four; Duration from Tocilizumab administration to recovery from CRS ([2]; patient 840010006, cohort 10A, CRS Grade 3 after 2nd ERY974 (0.81 μg/kg), Tocilizumab 8 mg/kg, 3 days after CRS manifestation): 4 days; Duration from Tocilizumab administration to recovery from CRS ([2]; patient 840010006, cohort 10A, CRS Grade 3 after 3rd ERY974 (0.54 μg/kg), Tocilizumab 8 mg/kg, same day as CRS manifestation): 3 days; Manifestation of CRS after Tocilizumab administration and until the next administration of this agent ([2]; patient 840010006, cohort 10A, after 2nd ERY974 (0.81 μg/kg), Tocilizumab 8 mg/kg): None; Presence or absence of CRS recurrence ([2]; patient 840010006, cohort 10A, 1 further ERY974 administration (0.54 μg/kg) after Tocilizumab 8 mg/kg): Present; Duration from Tocilizumab administration to recovery from CRS ([2]; patient 840010007, cohort 10A, CRS Grade 2, Tocilizumab 8 mg/kg, 6 days after CRS manifestation): 1 days; Presence or absence of CRS recurrence ([2]; patient 840010007, cohort 10A, 2 further ERY974 administrations (0.54, 0.81 μg/kg) after Tocilizumab 8 mg/kg): Absent; Manifestation of CRS after Tocilizumab administration and until the next administration of this agent ([2]; patient 840010007, cohort 10A, Tocilizumab 8 mg/kg): None; Duration from Tocilizumab administration to recovery from CRS ([2]; patient 840020017, cohort 8A, CRS Grade 2, Tocilizumab dose not known, same day as CRS manifestation): 0 days; Presence or absence of CRS recurrence ([2]; patient 840020017, cohort 8A, 3 further ERY974 administrations (0.36 μg/kg) after Tocilizumab): Absent; Manifestation of CRS after Tocilizumab administration and until the next administration of this agent ([2]; patient 840020017, cohort 8A, Tocilizumab dose not known): None; Duration from Tocilizumab administration to recovery from CRS ([2]; patient 840020021, cohort 9A, CRS Grade 1, Tocilizumab 4 mg/kg, same day as CRS manifestation): 0 days; Presence or absence of CRS recurrence ([2]; patient 840020021, cohort 9A, 9 further ERY974 administrations (0.54 μg/kg) after Tocilizumab 4 mg/kg): Absent; Manifestation of CRS after Tocilizumab administration and until the next administration of this agent ([2]; patient 840020021, cohort 9A, Tocilizumab 4 mg/kg): None; Duration from Tocilizumab administration to recovery from CRS ([2]; patient 840020022, cohort 9A, CRS Grade 2, Tocilizumab 4 mg/kg, within 2 hours from CRS manifestation): 0 days; Presence or absence of CRS recurrence ([2]; patient 840020022, cohort 9A, 3 further ERY974 administrations (0.54 μg/kg) after Tocilizumab 4 mg/kg): Absent; Manifestation of CRS after Tocilizumab administration and until the next administration of this agent ([2]; patient 840020022, cohort 9A, Tocilizumab 4 mg/kg): None; Duration from Tocilizumab administration to recovery from CRS ([2]; patient 840020023, cohort 9B, CRS Grade 2, Tocilizumab 4 mg/kg, same day as CRS manifestation): 0 days; Presence or absence of CRS recurrence ([2]; patient 840020023, cohort 9B, 19 further ERY974 administrations (0.54 μg/kg) after Tocilizumab 4 mg/kg): Absent; Manifestation of CRS after Tocilizumab administration and until the next administration of this agent ([2]; patient 840020023, cohort 9B, Tocilizumab 4 mg/kg): None; Duration from Tocilizumab administration to recovery from CRS ([2]; patient 840060002, cohort 8B, CRS Grade 2, Tocilizumab 8 mg/kg, same day as CRS manifestation): 2 days; Presence or absence of CRS recurrence ([2]; patient 840060002, cohort 8B, 9 further ERY974 administrations (0.36 μg/kg) after Tocilizumab 8 mg/kg): Absent; Manifestation of CRS after Tocilizumab administration and until the next administration of this agent ([2]; patient 840060002, cohort 8B, Tocilizumab 8 mg/kg): None; Serum concentration of Tocilizumab required for binding to 80% or more of IL-6R (IL-6R [3]): ≥ 10800 ng/mL; Estimated effective serum concentration (target concentration) of Tocilizumab [4]: 10 µg/mL
